PubChem BioAssay AID248 (DTP/NCI, 2004)
Values joined by “and” are separate entries in the source; they are usually repeats but may differ in a detail not shown here. Equal values may be shown once. Toxic doses and inconclusive results are not listed. Cut-off read from the data, not from the text of the source: active = T/C of 150% or more; inactive = T/C below 125%.

System: L1210 leukemia ip in BDF1 mice, survival T/C
Assay: NCI In Vivo Anticancer Drug Screen. Data for tumor model L1210 Leukemia (intraperitoneal) in B6D2F1 (BDF1) mice
Settings: endpoint: mean survival time, higher = longer survival
Procedure, shortened: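 Tumor cells were implanted, animals were treated, and survival was followed. The result divides the treated measurement by the vehicle-control measurement.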

[1] = dose: 100.0 mg/kg/injection, schedule: Q04DX003 (ip), vehicle: Klucel (hydroxypropylcellulose) (HPC)
[2] = dose: 200.0 mg/kg/injection, schedule: Q04DX003 (ip), vehicle: Klucel (hydroxypropylcellulose) (HPC)
[3] = dose: 100.0 mg/kg/injection, schedule: Q04DX003 (ip), vehicle: saline
[4] = dose: 200.0 mg/kg/injection, schedule: Q04DX003 (ip), vehicle: saline
[5] = dose: 100.0 mg/kg/injection, schedule: Q01DX009 (ip), vehicle: Klucel (hydroxypropylcellulose) (HPC)
[6] = dose: 200.0 mg/kg/injection, schedule: Q01DX009 (ip), vehicle: Klucel (hydroxypropylcellulose) (HPC)
[7] = dose: 400.0 mg/kg/injection, schedule: Q01DX009 (ip), vehicle: Klucel (hydroxypropylcellulose) (HPC)
[8] = dose: 100.0 mg/kg/injection, schedule: Q04DX002 (ip), vehicle: Klucel (hydroxypropylcellulose) (HPC)
[9] = dose: 200.0 mg/kg/injection, schedule: Q04DX002 (ip), vehicle: Klucel (hydroxypropylcellulose) (HPC)
[10] = dose: 400.0 mg/kg/injection, schedule: Q04DX002 (ip), vehicle: Klucel (hydroxypropylcellulose) (HPC)
[11] = dose: 100.0 mg/kg/injection, schedule: Q04DX003 (ip), vehicle: saline with Tween-80
[12] = dose: 200.0 mg/kg/injection, schedule: Q04DX003 (ip), vehicle: saline with Tween-80
[13] = dose: 100.0 mg/kg/injection, schedule: Q01DX001 (ip), vehicle: carboxymethylcellulose (CMC)
[14] = dose: 200.0 mg/kg/injection, schedule: Q01DX001 (ip), vehicle: carboxymethylcellulose (CMC)
[15] = dose: 400.0 mg/kg/injection, schedule: Q01DX001 (ip), vehicle: carboxymethylcellulose (CMC)
[16] = dose: 100.0 mg/kg/injection, schedule: Q01DX001 (ip), vehicle: saline with Tween-80
[17] = dose: 200.0 mg/kg/injection, schedule: Q01DX001 (ip), vehicle: saline with Tween-80
[18] = dose: 400.0 mg/kg/injection, schedule: Q01DX001 (ip), vehicle: saline with Tween-80

Measured: T/C

ClC1=C(Cl)C2(Cl)C3(Cl)C(Cl)=C(Cl)C(Cl)(C3c3ccccc3)C2(Cl)C1c1ccccc1 (centres undefined)
inactive: dose: 50.0 mg/kg/injection, schedule: Q04DX003 (ip), vehicle: Klucel (hydroxypropylcellulose) (HPC) 94 % of control | dose: 100.0 mg/kg/injection, schedule: Q01DX009 (ip), vehicle: saline sonified 96 % of control | [1] 97 % of control | dose: 200.0 mg/kg/injection, schedule: Q01DX009 (ip), vehicle: saline sonified 96 % of control | [2] 89 % of control | dose: 400.0 mg/kg/injection, schedule: Q01DX009 (ip), vehicle: saline sonified 91 % of control

Cn1c(=O)c2c(ncn2CC[n+]2cccc(C(N)=O)c2)n(C)c1=O
inactive: [3] 101 % of control | [4] 97 % of control

Nc1nc(N)c2c(no[n+]2[O-])n1
inactive: dose: 75.0 mg/kg/injection, schedule: Q01DX001 (ip), vehicle: other 98 % of control

CCOC(=O)c1ccc(NC(=O)NCCCCCCNC(=O)Nc2ccc(C(=O)OCC)cc2)cc1
inactive: [5] 90 % of control | [6] 100 % of control | [7] 100 % of control

CCN(C)C(=O)Nc1cccc([N+](=O)[O-])c1
inactive: [8] 101 % of control | [9] 93 % of control | [10] 93 % of control

O=C(O)CN(CCCCN(CC(=O)O)CC(=O)O)CC(=O)O
inactive: dose: 100.0 mg/kg/injection, schedule: Q01DX001 (ip), vehicle: other 111 % of control | dose: 200.0 mg/kg/injection, schedule: Q01DX001 (ip), vehicle: other 117 % of control | dose: 400.0 mg/kg/injection, schedule: Q01DX001 (ip), vehicle: other 96 % of control

CCCP(C)(C)=S
inactive: [8] 90 % of control | [9] 90 % of control

N#CCC[P+](CCC#N)(CCC#N)CCCCCC[P+](CCC#N)(CCC#N)CCC#N
inactive: [11] 98 % of control | [12] 93 % of control

CC1(C(=O)O)CCC2(C)CCC3(C)C(=CC(=O)C4C5(C)CCC(OC6OC(C(=O)O)C(O)C(O)C6OC6OC(C(=O)O)C(O)C(O)C6O)C(C)(C)C5CCC43C)C2C1 (centres undefined)
inactive: dose: 50.0 mg/kg/injection, schedule: Q01DX009 (ip), vehicle: saline 94 % of control | dose: 100.0 mg/kg/injection, schedule: Q01DX009 (ip), vehicle: saline 91 % of control and 107 % of control and 100 % of control | [3] 100 % of control | dose: 200.0 mg/kg/injection, schedule: Q01DX009 (ip), vehicle: saline 91 % of control and 90 % of control and 94 % of control | [4] 105 % of control | dose: 400.0 mg/kg/injection, schedule: Q01DX009 (ip), vehicle: saline 98 % of control and 93 % of control | dose: 400.0 mg/kg/injection, schedule: Q04DX003 (ip), vehicle: saline 103 % of control

O=C1NC(Cc2ccc(O)cc2)C(=O)N1c1ccccc1O (centres undefined)
inactive: [13] 96 % of control | [14] 96 % of control | [15] 94 % of control

CN(C)c1ccc(C=Nc2ccc(/C=C3\C=Cc4ccccc43)cc2)cc1
inactive: dose: 50.0 mg/kg/injection, schedule: Q01DX001 (ip), vehicle: carboxymethylcellulose (CMC) 91 % of control | [13] 93 % of control | [14] 96 % of control | [15] 96 % of control

CC1CN=C(c2ccc(O)cc2O)S1 (centres undefined)
inactive: dose: 100.0 mg/kg/injection, schedule: Q04DX002 (ip), vehicle: saline 93 % of control | dose: 200.0 mg/kg/injection, schedule: Q04DX002 (ip), vehicle: saline 104 % of control | dose: 400.0 mg/kg/injection, schedule: Q04DX002 (ip), vehicle: saline 96 % of control

CCC(O)CNC1CCCCC1 (centres undefined)
inactive: dose: 75.0 mg/kg/injection, schedule: Q01DX001 (ip), vehicle: saline 98 % of control | dose: 150.0 mg/kg/injection, schedule: Q01DX001 (ip), vehicle: saline 98 % of control

O=[N+]([O-])c1ccc(Cl)c(OCCOc2ccc(S(=O)(=O)F)cc2)c1
inactive: [16] 96 % of control | [17] 87 % of control | [18] 90 % of control

COc1cc(N=O)c(C(=O)c2nccc3cc(OC)c(OC)cc23)cc1OC
inactive: dose: 100.0 mg/kg/injection, schedule: Q01DX001 (ip), vehicle: saline 104 % of control | dose: 200.0 mg/kg/injection, schedule: Q01DX001 (ip), vehicle: saline 91 % of control | dose: 400.0 mg/kg/injection, schedule: Q01DX001 (ip), vehicle: saline 94 % of control

CN(C)CCCN=Cc1[nH]c(=S)[nH]c(=O)c1Cc1ccc(Cl)cc1
inactive: [16] 102 % of control | [17] 111 % of control | [18] 101 % of control

O=C(CC(C#Cc1ccccc1)c1ccccc1)c1ccccc1 (centres undefined)
inactive: dose: 75.0 mg/kg/injection, schedule: Q04DX003 (ip), vehicle: Klucel (hydroxypropylcellulose) (HPC) 97 % of control | dose: 150.0 mg/kg/injection, schedule: Q04DX003 (ip), vehicle: Klucel (hydroxypropylcellulose) (HPC) 101 % of control | dose: 300.0 mg/kg/injection, schedule: Q04DX003 (ip), vehicle: Klucel (hydroxypropylcellulose) (HPC) 94 % of control

COc1cccc(N2C(=O)C3C(C2=O)C2(Cl)C(Cl)=C(Cl)C3(Cl)C2(Cl)Cl)c1 (centres undefined)
inactive: [5] 98 % of control | [6] 94 % of control | [7] 89 % of control

CCc1cc2oc(C)c(C)c2c(N=Nc2cccc([N+](=O)[O-])c2)c1O
inactive: [8] 96 % of control | [9] 96 % of control | [10] 93 % of control

CC1=CC(=O)c2ccccc2C1=O
inactive: dose: 10.0 mg/kg/injection, schedule: Q01DX015 (ip), vehicle: carboxymethylcellulose (CMC) 90 % of control | dose: 15.0 mg/kg/injection, schedule: Q01DX015 (ip), vehicle: carboxymethylcellulose (CMC) 90 % of control | dose: 20.0 mg/kg/injection, schedule: Q01DX015 (ip), vehicle: carboxymethylcellulose (CMC) 90 % of control | dose: 43.0 mg/kg/injection, schedule: Q01DX001 (ip), vehicle: carboxymethylcellulose (CMC) 97 % of control | dose: 64.0 mg/kg/injection, schedule: Q01DX001 (ip), vehicle: carboxymethylcellulose (CMC) 102 % of control | dose: 85.0 mg/kg/injection, schedule: Q01DX001 (ip), vehicle: carboxymethylcellulose (CMC) 108 % of control

CCC(Sc1ccccc1[N+](=O)[O-])[N+](=O)[O-] (centres undefined)
inactive: [1] 105 % of control | [2] 95 % of control | dose: 400.0 mg/kg/injection, schedule: Q04DX003 (ip), vehicle: Klucel (hydroxypropylcellulose) (HPC) 100 % of control

Cc1c(N)cccc1N
inactive: dose: 12.5 mg/kg/injection, schedule: Q01DX009 (ip), vehicle: saline with Tween-80 119 % of control | dose: 12.5 mg/kg/injection, schedule: Q04DX003 (ip), vehicle: saline with Tween-80 95 % of control | dose: 25.0 mg/kg/injection, schedule: Q01DX009 (ip), vehicle: saline with Tween-80 108 % of control | dose: 25.0 mg/kg/injection, schedule: Q04DX003 (ip), vehicle: saline with Tween-80 117 % of control | dose: 50.0 mg/kg/injection, schedule: Q04DX003 (ip), vehicle: saline with Tween-80 117 % of control

Cc1nnc(NS(=O)(=O)c2ccc(N=Nc3c(N)n(C)c(=O)n(C)c3=O)cc2)s1
inactive: [13] 101 % of control | [14] 95 % of control | [15] 89 % of control

CCOC(=O)C(N)Cc1cc(I)c(O)c(I)c1 (centres undefined)
inactive: [11] 95 % of control | [12] 97 % of control | dose: 400.0 mg/kg/injection, schedule: Q04DX003 (ip), vehicle: saline with Tween-80 101 % of control
